Literature values as cited in patent US20150190413A1, “COMPOSITIONS AND METHODS FOR THE TREATMENT OF BLADDER CANCER” (Endo Pharmaceuticals Solutions Inc., priority 2007, published 2015).
Where two headings read alike, the source gives them in different places.

Tested on: epithelium of the bladder
Details: rabbit

- Effect on epithelium of the bladder (five percent solutions of DMSO in water): sensitive
- Effect on bladder cells (one hundred percent DMSO): fixed
- Effect on epithelium of the bladder (twenty percent solutions of DMSO in water): loss of epithelial cells
Compound: C[S+](C)[O-] [DMSO, dimethyl sulfoxide]
